This is an account of results in patent US20060063759A1, “Tricyclic steroid hormone nuclear receptor modulators” (priority 2002, published 2006).

The structures appear in SMILES notation. Bounds are passed on as bounds.

The target of one experiment is T1, human MR (Homo sapiens, UniProt P08235).
T1 construct: The full length human MR gene is cloned from a human kidney or human brain cDNA library; His tag from the pAcHLT vector (own knowledge); made in house; host or cells: Sf9 insect cells (baculovirus, pAcHLT transfer vector)
T1 sequence (P08235 1-984): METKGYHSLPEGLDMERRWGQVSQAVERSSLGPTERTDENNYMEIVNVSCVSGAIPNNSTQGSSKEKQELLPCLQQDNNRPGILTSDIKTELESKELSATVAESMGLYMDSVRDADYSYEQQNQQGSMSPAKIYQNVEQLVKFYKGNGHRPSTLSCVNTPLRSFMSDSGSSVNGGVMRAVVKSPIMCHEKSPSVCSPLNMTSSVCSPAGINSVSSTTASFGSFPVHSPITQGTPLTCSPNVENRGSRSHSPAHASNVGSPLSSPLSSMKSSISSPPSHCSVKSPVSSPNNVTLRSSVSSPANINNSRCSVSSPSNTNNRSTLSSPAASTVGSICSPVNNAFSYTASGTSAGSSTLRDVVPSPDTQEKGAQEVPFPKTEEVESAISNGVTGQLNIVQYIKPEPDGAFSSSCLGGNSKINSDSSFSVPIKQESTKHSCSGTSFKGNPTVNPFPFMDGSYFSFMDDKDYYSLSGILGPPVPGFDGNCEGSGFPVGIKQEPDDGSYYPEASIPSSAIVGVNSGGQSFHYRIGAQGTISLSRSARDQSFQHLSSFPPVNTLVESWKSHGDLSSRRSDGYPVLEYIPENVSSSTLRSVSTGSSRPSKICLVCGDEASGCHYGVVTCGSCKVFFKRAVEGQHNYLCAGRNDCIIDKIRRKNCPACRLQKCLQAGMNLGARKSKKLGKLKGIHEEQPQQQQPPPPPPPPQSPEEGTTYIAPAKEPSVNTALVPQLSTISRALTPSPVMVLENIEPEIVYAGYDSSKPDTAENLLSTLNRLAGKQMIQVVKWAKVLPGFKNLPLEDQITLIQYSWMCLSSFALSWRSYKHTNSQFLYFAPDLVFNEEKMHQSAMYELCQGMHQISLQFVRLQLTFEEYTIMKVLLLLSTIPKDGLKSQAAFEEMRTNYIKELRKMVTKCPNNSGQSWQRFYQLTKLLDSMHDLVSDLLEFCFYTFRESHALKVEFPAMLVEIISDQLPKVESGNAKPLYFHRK
The experiment is described as follows: Mineralocorticoid Receptor Binding Assay ([3H]-aldosterone). Conditions: [3H]-aldosterone binding, human MR expressed in Sf9 cells; read-out: MR Ki. The essentials:
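Lysate supernatant of Sf9 cells expressing full-length human MR (20-25 μg protein) was incubated with 0.5 nM [3H]-aldosterone and test compound in molybdate/Tris/phosphate/glycerol buffer, pH 7.5, ~16 h at 4 °C. Bound ligand was filtered and counted by scintillation; IC50 is the concentration halving [3H]-aldosterone binding.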

The target of the next experiment is T2, glucocorticoid receptor (Homo sapiens, UniProt P04150).
T2 construct: containing 50-200 ug of A549 cell extract and 1.86 nM [^3H]-dexamethasone; host or cells: A549 human lung epithelial cells (sonicated cell extract)
T2 sequence (P04150 1-777): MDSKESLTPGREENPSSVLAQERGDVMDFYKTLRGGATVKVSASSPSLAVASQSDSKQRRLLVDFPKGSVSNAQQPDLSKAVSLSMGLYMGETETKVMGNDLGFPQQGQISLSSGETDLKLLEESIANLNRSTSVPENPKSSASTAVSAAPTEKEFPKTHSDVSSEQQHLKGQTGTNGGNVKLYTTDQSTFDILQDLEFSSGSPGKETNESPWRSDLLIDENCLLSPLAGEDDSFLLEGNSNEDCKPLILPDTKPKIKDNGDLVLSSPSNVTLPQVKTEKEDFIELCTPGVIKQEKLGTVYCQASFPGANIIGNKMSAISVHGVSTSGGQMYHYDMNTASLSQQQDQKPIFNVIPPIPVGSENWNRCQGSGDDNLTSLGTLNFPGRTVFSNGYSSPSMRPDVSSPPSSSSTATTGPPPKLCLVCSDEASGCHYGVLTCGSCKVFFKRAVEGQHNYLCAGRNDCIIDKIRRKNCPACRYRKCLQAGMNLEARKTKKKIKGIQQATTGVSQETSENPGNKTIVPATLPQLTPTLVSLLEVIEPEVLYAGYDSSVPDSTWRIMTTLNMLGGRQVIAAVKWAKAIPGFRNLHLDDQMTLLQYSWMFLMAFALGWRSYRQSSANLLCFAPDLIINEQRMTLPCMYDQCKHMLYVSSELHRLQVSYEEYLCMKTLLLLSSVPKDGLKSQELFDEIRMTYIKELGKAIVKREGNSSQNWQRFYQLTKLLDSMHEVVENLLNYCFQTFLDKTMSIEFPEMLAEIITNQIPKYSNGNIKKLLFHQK
Put plainly: Glucocorticoid Receptor Binding Assay ([3H]-dexamethasone, A549 cell extract). Conditions: [3H]-dexamethasone binding, read-out: GR Ki. An outline of the steps: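 A549 cell extract (50–200 ug) incubated with 1.86 nM [3H]-dexamethasone and test compound for 16 h at 4 °C in Tris-HCl pH 7.2 buffer with glycerol and molybdate. Unbound radioligand removed by dextran-coated charcoal, then supernatant bound counts measured by scintillation.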

In general, Ki refers to a measure of affinity in units of concentration, obtained from inhibition or displacement.

On to `Fc1ccc2c(c1)CCc1ncccc1/C2=C/c1ccccc1C(F)F` [Example 539], for which the Ki at human MR and at glucocorticoid receptor was below 0.5 µM each time.

Consider `Fc1ccc2c(c1)CCc1ncccc1/C2=C\c1ccccc1C(F)F` [Example 540], for which the inhibition constant (Ki) at human MR and at glucocorticoid receptor was below 0.5 µM throughout.

On to `Fc1ccc2c(c1)CCc1ncccc1/C2=C/c1cccc(C(F)F)c1` [Example 541], for which the Ki is below 0.5 µM at human MR and below 1 µM on glucocorticoid receptor.

Regarding `Fc1ccc2c(c1)CCc1ncccc1/C2=C\c1cccc(C(F)F)c1` [Example 542], the inhibition constant Ki was below 0.5 µM on human MR and below 10 µM on glucocorticoid receptor.

In the case of `Fc1ccc2c(c1)CCc1ncccc1/C2=C/c1ccc(C(F)F)cc1` [Example 543], the Ki on human MR was below 0.5 µM; on glucocorticoid receptor, below 10 µM.

Take `Fc1ccc2c(c1)CCc1ncccc1/C2=C\c1ccc(C(F)F)cc1` [Example 544]: the results for the Ki at human MR and at glucocorticoid receptor were below 0.5 µM and below 1 µM, respectively.

Consider `CC(=O)Nc1cccc(/C=C2\c3ccc(F)cc3CCc3ncccc32)c1` [Example 545], for which the values for the Ki on human MR and on glucocorticoid receptor were below 0.5 µM and below 10 µM, respectively.

Turning to `CS(=O)(=O)Nc1cccc(/C=C2/c3ccc(F)cc3CCc3nc(C#N)ccc32)c1` [Example 546], the Ki at human MR and at glucocorticoid receptor was below 0.5 µM in each case.

In the case of `CS(=O)(=O)Nc1cccc(/C=C2\c3ccc(F)cc3CCc3nc(C#N)ccc32)c1` [Example 547], the Ki on human MR and on glucocorticoid receptor was below 0.5 µM each time.

On to `CS(=O)(=O)Nc1cc(F)cc(/C=C2\c3ccc(Cl)cc3CCc3cccnc32)c1` [Example 548], for which the results for the Ki at human MR and on glucocorticoid receptor were below 0.5 µM and below 10 µM, respectively.

As for `O=c1[nH]c2ccc(/C=C3/c4ccc(F)cc4CCc4nc(Cl)sc43)cc2[nH]1` [Example 549], the figures for the Ki at human MR and on glucocorticoid receptor were below 0.5 µM and below 10 µM, respectively.

On to `CS(=O)(=O)Nc1cccc(/C=C2\c3ccc(F)cc3CCc3nc(Cl)sc32)c1` [Example 550], for which the Ki on human MR and on glucocorticoid receptor was below 0.5 µM throughout.

Take `CS(=O)(=O)Nc1cccc(/C=C2/c3ccc(F)cc3CCc3nc(Cl)sc32)c1` [Example 551]: the Ki at human MR and on glucocorticoid receptor was below 0.5 µM in each case.

As for `CS(=O)(=O)Nc1cccc(/C=C2/c3ccc(Cl)cc3CCc3ncsc32)c1` [Example 552], the Ki at human MR and on glucocorticoid receptor was below 0.5 µM each time.

As to `CS(=O)(=O)Nc1cccc(/C=C2\c3ccc(Cl)cc3CCc3ncsc32)c1` [Example 553], the Ki at human MR and at glucocorticoid receptor was below 0.5 µM throughout.

`CS(=O)(=O)Nc1cccc(/C=C2\c3scnc3CCc3cccc(Cl)c32)c1` [Example 554]: the Ki on human MR is below 0.5 µM; at glucocorticoid receptor, below 1 µM.

In the case of `CS(=O)(=O)Nc1cccc(/C=C2/c3ccccc3CCc3ncsc32)c1` [Example 555], the Ki on human MR and at glucocorticoid receptor was below 0.5 µM in each case.

`CS(=O)(=O)Nc1cccc(/C=C2\c3ccccc3CCc3ncsc32)c1` [Example 556]: the Ki at human MR and on glucocorticoid receptor was below 0.5 µM each time.

On to `CS(=O)(=O)Nc1cccc(/C=C2/c3cccnc3CCc3cccc(F)c32)c1` [Example 557], for which the Ki on human MR and at glucocorticoid receptor was below 0.5 µM throughout.

`CS(=O)(=O)Nc1cccc(/C=C2\c3ccccc3CCc3nc(N)sc32)c1` [Example 559]: the Ki on human MR and on glucocorticoid receptor was below 0.5 µM throughout.

On to `Nc1nc2c(s1)C(=Cc1cccc(O)c1)c1ccccc1CC2` [Example 560], for which the Ki is below 0.5 µM at human MR and below 1 µM on glucocorticoid receptor.

Consider `O=c1[nH]c2ccc(/C=C3\c4ccccc4CCc4ncsc43)cc2[nH]1` [Example 561], for which the Ki on human MR is below 0.5 µM; at glucocorticoid receptor, below 1 µM.

For the compound `O=c1[nH]c2cc(/C=C3\c4ccccc4CCc4ncsc43)ccc2o1` [Example 562], the Ki on human MR and on glucocorticoid receptor was below 0.5 µM each time.

Regarding `CS(=O)(=O)Nc1cccc(/C=C2/c3ccc(F)cc3CCc3ncsc32)c1` [Example 563], the Ki at human MR and on glucocorticoid receptor was below 0.5 µM each time.

Consider `CS(=O)(=O)Nc1cccc(/C=C2\c3ccc(F)cc3CCc3ncsc32)c1` [Example 564], for which the Ki on human MR and on glucocorticoid receptor was below 0.5 µM in each case.

As for `O=c1[nH]c2ccc(/C=C3\c4ccc(F)cc4CCc4ncsc43)cc2[nH]1` [Example 565], the Ki at human MR is below 0.5 µM; on glucocorticoid receptor, below 10 µM.

As for `O=c1[nH]c2ccc(/C=C3/c4ccc(F)cc4CCc4ncsc43)cc2[nH]1` [Example 566], the results for the Ki on human MR and at glucocorticoid receptor were below 0.5 µM and below 10 µM, respectively.

With `CS(=O)(=O)Nc1cccc(/C=C2\c3cccnc3CCc3c(Cl)cccc32)c1` [Example 567], the Ki was below 0.5 µM at human MR and below 10 µM on glucocorticoid receptor.

On to `CS(=O)(=O)Nc1cccc(/C=C2/c3ccc(Cl)cc3CCc3ncccc32)c1` [Example 569], for which the Ki is below 0.5 µM on human MR and below 10 µM on glucocorticoid receptor.

As for `CS(=O)(=O)Nc1cccc(/C=C2\c3ccc(Cl)cc3CCc3ncccc32)c1` [Example 570], the Ki on human MR is below 0.5 µM; at glucocorticoid receptor, below 1 µM.

Turning to `CS(=O)(=O)Nc1cccc(/C=C2/c3cccnc3CCc3c(Cl)cccc32)c1` [Example 573], the Ki on human MR and at glucocorticoid receptor was below 0.5 µM in each case.

With `CS(=O)(=O)Nc1cccc(/C=C2\c3cccnc3CCc3c(F)cccc32)c1` [Example 574], the Ki at human MR and at glucocorticoid receptor was below 0.5 µM each time.

For `Fc1cccc2c1CCc1ncccc1C2=Cc1cccc(Cl)c1` [Example 575], the Ki at human MR and at glucocorticoid receptor was below 0.5 µM each time.

As to `CS(=O)(=O)Nc1cccc(/C=C2/c3cccnc3CCc3c(F)cccc32)c1` [Example 576], the Ki on human MR is below 0.5 µM; on glucocorticoid receptor, below 10 µM.

Take `Fc1ccc2c(c1)CCc1ncccc1/C2=C/c1ccccc1F` [Example 578]: the results for the Ki on human MR and at glucocorticoid receptor were below 0.5 µM and below 10 µM, respectively.

For `Fc1cccc(/C=C2\c3ccc(F)cc3CCc3ncccc32)c1` [Example 579], the Ki at human MR and at glucocorticoid receptor was below 0.5 µM each time.

On to `Fc1ccc(/C=C2\c3ccc(F)cc3CCc3ncccc32)cc1` [Example 580], for which the figures for the Ki on human MR and at glucocorticoid receptor were below 0.5 µM and below 10 µM, respectively.

`Fc1ccc(/C=C2/c3ccc(F)cc3CCc3ncccc32)cc1` [Example 581]: the Ki at human MR was below 0.5 µM; at glucocorticoid receptor, below 10 µM.

As for `Fc1ccc2c(c1)CCc1ncccc1/C2=C\c1ccccc1F` [Example 582], the Ki on human MR is below 0.5 µM; on glucocorticoid receptor, below 10 µM.

As for `Fc1cccc(/C=C2/c3ccc(F)cc3CCc3ncccc32)c1` [Example 583], the values for the Ki at human MR and at glucocorticoid receptor were below 0.5 µM and below 10 µM, respectively.

`COC(=O)c1ccc(/C=C2\c3ccc(F)cc3CCc3ncccc32)cc1` [Example 584]: the figures for the Ki on human MR and at glucocorticoid receptor were below 1 µM and below 10 µM, respectively.
